This is an account of results in patent US10428083B2, “Heterocyclylmethyl-thienouracile as antagonists of the adenosine-A2B-receptor” (BAYER PHARMA AKTIENGESELLSCHAFT, priority 2015, dated 2019).

human adenosine A2b receptor, sequence (P29275 whole entry): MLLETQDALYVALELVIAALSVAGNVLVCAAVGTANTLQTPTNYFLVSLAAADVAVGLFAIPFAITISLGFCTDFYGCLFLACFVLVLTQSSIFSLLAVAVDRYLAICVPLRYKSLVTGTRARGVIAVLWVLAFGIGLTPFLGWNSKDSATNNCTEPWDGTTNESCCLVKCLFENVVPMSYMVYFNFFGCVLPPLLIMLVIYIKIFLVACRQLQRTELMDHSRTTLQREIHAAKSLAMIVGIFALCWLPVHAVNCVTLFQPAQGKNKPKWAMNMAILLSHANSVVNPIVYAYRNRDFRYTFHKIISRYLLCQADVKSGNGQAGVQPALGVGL

The experiment addresses human adenosine A2b receptor (Homo sapiens (Human), UniProt P29275). Description: Cellular in vitro reporter gene test for A2b receptor activity (CHO-K1, CRE-luciferase, NECA stimulation). Format: cell-based. To be noted: recombinant CHO-K1 cell line, CRE-luciferase reporter, antagonism of EC50 concentration of NECA; in some cases means of several determinations, rounded to two significant figures; read-out: A2b receptor IC50. An outline of the steps: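 CHO-K1 cells with CRE-driven luciferase; antagonists co-incubated with NECA at its EC50, determined in a pre-experiment on each test day. Luciferase read by luminescence 3 h after NECA addition.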
The term IC50 denotes the concentration needed to halve the response being measured. In the case of `Cc1c(CN2CCNC(=O)C2=O)sc2c1c(=O)n(CC(C)(C)C)c(=O)n2CCC(F)(F)F` [Example 272, 3-(2,2-Dimethylpropyl)-6-[(2,3-dioxopiperazin-1-yl)methyl]-5-methyl-1-(3,3,3-trifluoropropyl)thieno[2,3-d]pyrimidine-2,4(1H,3H)-dione], the concentration for half-maximal inhibition (IC50) came out at 10 nM.
Then `Cc1c(CN2CCNC2=O)sc2c1c(=O)n(CC(C)(C)O)c(=O)n2CCC(F)(F)F` [Example 227, 3-(2-Hydroxy-2-methylpropyl)-5-methyl-6-[(2-oxoimidazolidin-1-yl)methyl]-1-(3,3,3-trifluoropropyl)thieno[2,3-d]pyrimidine-2,4(1H,3H)-dione], with 22 nM; and `CCn1c(=O)c2c(C)c(CN3CCN(C(C)C)C3=S)sc2n(CCOC)c1=O` [Example 174, 3-Ethyl-6-[(3-isopropyl-2-thioxoimidazolidin-1-yl)methyl]-1-(2-methoxyethyl)-5-methylthieno[2,3-d]pyrimidine-2,4(1H,3H)-dione], with 49 nM; and `COC(C)(C)Cn1c(=O)c2c(C)c(CN3CCNC(=O)C3=O)sc2n(CCC(F)(F)F)c1=O` [Example 279, 6-[(2,3-Dioxopiperazin-1-yl)methyl]-3-(2-methoxy-2-methylpropyl)-5-methyl-1-(3,3,3-trifluoropropyl)thieno[2,3-d]pyrimidine-2,4(1H,3H)-dione], with 20 nM.
Under `CCn1c(=O)c2c(C)c(CN3CCNC3=O)sc2n(CC2CC2(F)F)c1=O` (single isomer, unassigned; enantiomer 2) [Example 56, 1-[(2,2-Difluorocyclopropyl)methyl]-3-ethyl-5-methyl-6-[(2-oxoimidazolidin-1-yl)methyl]thieno[2,3-d]pyrimidine-2,4(1H,3H)-dione (Enantiomer 2)] stands 8 nM; under `COCCn1c(=O)n(CC2CC2(F)F)c(=O)c2c(C)c(CN3CCNC3=O)sc21` (racemic) [Example 323, 3-[(2,2-Difluorocyclopropyl)methyl]-1-(2-methoxyethyl)-5-methyl-6-[(2-oxoimidazolidin-1-yl)methyl]thieno[2,3-d]pyrimidine-2,4(1H,3H)-dione], 34 nM.
As for `Cc1c(CN2CCNC2=O)sc2c1c(=O)n(CC(C)(C)C)c(=O)n2CCCF` [Example 201, 3-(2,2-Dimethylpropyl)-1-(3-fluoropropyl)-5-methyl-6-[(2-oxoimidazolidin-1-yl)methyl]thieno[2,3-d]pyrimidine-2,4(1H,3H)-dione], the concentration for half-maximal inhibition (IC50) is 4.4 nM.
Under `Cc1c(CN2CCNC(=O)C2=O)sc2c1c(=O)n(C(C)C)c(=O)n2CC1CCCO1` (single isomer, unassigned) [Example 481, 6-[(2,3-Dioxopiperazin-1-yl)methyl]-3-isopropyl-5-methyl-1-(tetrahydrofuran-2-ylmethyl)thieno[2,3-d]pyrimidine-2,4(1H,3H)-dione] stands 140 nM; under `C#CCn1c(=O)c2c(C)c(CN3CCNC3=O)sc2n(CCOC)c1=O` [Example 315, 1-(2-Methoxyethyl)-5-methyl-6-[(2-oxoimidazolidin-1-yl)methyl]-3-(prop-2-yn-1-yl)thieno[2,3-d]pyrimidine-2,4(1H,3H)-dione], 4.3 nM.
For `Cc1c(Cn2[nH]ccc2=O)sc2c1c(=O)n(C(C)C)c(=O)n2CC1CCCO1` (single isomer, unassigned) [Example 136, 3-Isopropyl-5-methyl-6-[(5-oxo-2,5-dihydro-1H-pyrazol-1-yl)methyl]-1-(tetrahydrofuran-2-ylmethyl)thieno[2,3-d]pyrimidine-2,4(1H,3H)-dione], the half-inhibitory concentration (IC50) is 360 nM.
Take `COCCn1c(=O)n(C(C)C)c(=O)c2c(C)c(CN3CCNC3=NC(=O)OC)sc21` [Example 378, Methyl [1-{[3-isopropyl-1-(2-methoxyethyl)-5-methyl-2,4-dioxo-1,2,3,4-tetrahydrothieno[2,3-d]pyrimidin-6-yl]methyl}imidazolidin-2-ylidene]carbamate]: the concentration for half-maximal inhibition (IC50) came out at 3.1 nM.
Under `Cc1c(CN2CCNC2=O)sc2c1c(=O)n(C(C)C)c(=O)n2CCC(F)(F)F` [Example 181, 3-Isopropyl-5-methyl-6-[(2-oxoimidazolidin-1-yl)methyl]-1-(3,3,3-trifluoropropyl)thieno[2,3-d]pyrimidine-2,4(1H,3H)-dione] stands 1.5 nM.
As to `C#CCCn1c(=O)c2c(C)c(CN3CCNC3=O)sc2n(CCOC)c1=O` [Example 318, 3-(But-3-yn-1-yl)-1-(2-methoxyethyl)-5-methyl-6-[(2-oxoimidazolidin-1-yl)methyl]thieno[2,3-d]pyrimidine-2,4(1H,3H)-dione], the IC50 is 1.4 nM.
Then `CCn1c(=O)c2c(C)c(C(C)N3CCNC3=O)sc2n(CCC(F)(F)F)c1=O` (single isomer, unassigned) [Example 503, 3-Ethyl-5-methyl-6-[1-(2-oxoimidazolidin-1-yl)ethyl]-1-(3,3,3-trifluoropropyl)thieno[2,3-d]pyrimidine-2,4(1H,3H)-dione], with 39 nM; and `Cc1c(CN2CCNC2=O)sc2c1c(=O)n(C(C)C)c(=O)n2CC1COC1` [Example 189, 3-Isopropyl-5-methyl-1-(oxetan-3-ylmethyl)-6-[(2-oxoimidazolidin-1-yl)methyl]thieno[2,3-d]pyrimidine-2,4(1H,3H)-dione], with 17 nM.
Turning to `Cc1c(CN2CCNC2=S)sc2c1c(=O)n(CC(F)F)c(=O)n2CCC(F)(F)F` [Example 160, 3-(2,2-Difluoroethyl)-5-methyl-6-[(2-thioxoimidazolidin-1-yl)methyl]-1-(3,3,3-trifluoropropyl)thieno[2,3-d]pyrimidine-2,4(1H,3H)-dione], the IC50 is 2.9 nM.
On to `CCn1c(=O)c2c(C)c(CN3C(=O)CCC3C)sc2n(CCC(F)(F)F)c1=O` (racemic) [Example 10, 3-Ethyl-5-methyl-6-[(2-methyl-5-oxopyrrolidin-1-yl)methyl]-1-(3,3,3-trifluoropropyl)thieno[2,3-d]pyrimidine-2,4(1H,3H)-dione (racemate)], for which the half-maximal inhibitory concentration (IC50) stood at 7 nM.
With `Cc1c(CN2CCNC2=O)sc2c1c(=O)n(CC(F)F)c(=O)n2CCC(F)(F)F` [Example 214, 3-(2,2-Difluoroethyl)-5-methyl-6-[(2-oxoimidazolidin-1-yl)methyl]-1-(3,3,3-trifluoropropyl)thieno[2,3-d]pyrimidine-2,4(1H,3H)-dione], the IC50 worked out at 3.1 nM.
In the case of `CCn1c(=O)c2c(C)c(CN3CCNC3=O)sc2n(CC2CC2(F)F)c1=O` (racemic) [Example 54, 1-[(2,2-Difluorocyclopropyl)methyl]-3-ethyl-5-methyl-6-[(2-oxoimidazolidin-1-yl)methyl]thieno[2,3-d]pyrimidine-2,4(1H,3H)-dione (racemate)], the concentration for half-maximal inhibition (IC50) amounted to 4.1 nM.
Then `COC(C)(C)Cn1c(=O)c2c(C)c(CN3CCNC(=O)C3=O)sc2n(CCCF)c1=O` [Example 280, 6-[(2,3-Dioxopiperazin-1-yl)methyl]-1-(3-fluoropropyl)-3-(2-methoxy-2-methylpropyl)-5-methylthieno[2,3-d]pyrimidine-2,4(1H,3H)-dione], with 82 nM; and `Cc1c(CN2CCNC2=NC#N)sc2c1c(=O)n(C(C)C)c(=O)n2CC1CCO1` (single isomer, unassigned) [Example 266, [1-{[3-Isopropyl-5-methyl-1-(oxetan-2-ylmethyl)-2,4-dioxo-1,2,3,4-tetrahydrothieno[2,3-d]pyrimidin-6-yl]methyl}imidazolidin-2-ylidene]cyanamide], with 75 nM; and `COCCn1c(=O)c2c(C)c(CN3CCNC3=NC(=O)OC)sc2n(CC2CCCO2)c1=O` (racemic) [Example 390, Methyl [1-{[3-(2-methoxyethyl)-5-methyl-2,4-dioxo-1-(tetrahydrofuran-2-ylmethyl)-1,2,3,4-tetrahydrothieno[2,3-d]pyrimidin-6-yl]methyl}imidazolidin-2-ylidene]carbamate], with 28 nM.
Then `CCn1c(=O)c2c(C)c(Cn3[nH]ccc3=O)sc2n(CC2CCCO2)c1=O` (racemic) [Example 129, 3-Ethyl-5-methyl-6-[(5-oxo-2,5-dihydro-1H-pyrazol-1-yl)methyl]-1-(tetrahydrofuran-2-ylmethyl)thieno[2,3-d]pyrimidine-2,4(1H,3H)-dione], with 19 nM; and `COCCn1c(=O)n(C(C)COC)c(=O)c2c(C)c(CN3CCNC3=O)sc21` (single isomer, unassigned) [Example 331, 1-(2-Methoxyethyl)-3-(1-methoxypropan-2-yl)-5-methyl-6-[(2-oxoimidazolidin-1-yl)methyl]thieno[2,3-d]pyrimidine-2,4(1H,3H)-dione], with 61 nM; and `Cc1c(CN2CCNC(=O)C2=O)sc2c1c(=O)n(CC(F)(F)F)c(=O)n2CC1CCCO1` (racemic) [Example 487, 6-[(2,3-Dioxopiperazin-1-yl)methyl]-5-methyl-1-(tetrahydrofuran-2-ylmethyl)-3-(2,2,2-trifluoroethyl)thieno[2,3-d]pyrimidine-2,4(1H,3H)-dione], with 250 nM.
In the case of `COCCn1c(=O)n(CC2COC2)c(=O)c2c(C)c(CN3CCNC3=O)sc21` [Example 335, 1-(2-Methoxyethyl)-5-methyl-3-(oxetan-3-ylmethyl)-6-[(2-oxoimidazolidin-1-yl)methyl]thieno[2,3-d]pyrimidine-2,4(1H,3H)-dione], the half-inhibitory concentration (IC50) amounted to 270 nM.
As to `CCn1c(=O)c2c(C)c(CN3CCNC3=NC#N)sc2n(CC2CCCO2)c1=O` (single isomer, unassigned) [Example 261, [1-{[3-Ethyl-5-methyl-2,4-dioxo-1-(tetrahydrofuran-2-ylmethyl)-1,2,3,4-tetrahydrothieno[2,3-d]pyrimidin-6-yl]methyl}imidazolidin-2-ylidene]cyanamide], the IC50 was found to be 9.9 nM.
Regarding `Cc1c(CN2CCNC2=O)sc2c1c(=O)n(C(C)C)c(=O)n2CC1CCCO1` (single isomer, unassigned) [Example 188, 3-Isopropyl-5-methyl-6-[(2-oxoimidazolidin-1-yl)methyl]-1-(tetrahydrofuran-2-ylmethyl)thieno[2,3-d]pyrimidine-2,4(1H,3H)-dione], the IC50 was found to be 40 nM.
